Measured values reported in patent US20110263693A1, “CELASTROL, GEDUNIN, AND DERIVATIVES THEREOF AS HSP90 INHIBITORS” (DANA-FARBER CANCER INSTITUTE, INC., priority 2006, published 2011).

Columns and labels:
LNCaP cells [1] = assay: Adherent cell growth by luminescent assay of ATP level (CellTiterGlo); type: cell-based; details: for LNCaP cell viability at higher concentrations: in the presence of androgen, above EC50 of androgen signaling inhibition; for adherent growth of androgen-stimulated LNCaP cells: luminescent assay of ATP levels
Procedure: (§1) To investigate the cellular consequences of celastrol- and gedunin-mediated inhibition, we assessed whether celastrol and gedunin activity results in decreased cell growth, consistent with AR inhibition. […] Second, the compounds' effects on anchorage-independent growth of LNCaP cells was assayed in soft agar (FIG. 6D).
(§2) Adherent cell growth was measured by luminescent assay of ATP level (CellTiterGlo, Promega). LNCaP cells were grown in charcoal-stripped media for 2 days prior to simultaneous treatment with 1 nM R1881 and the relevant compound. Synergy was assessed by analyzing the IC50 of one drug over a range of concentrations of the other drug and vice versa. The resulting concentration pairs were visualized by isobologram (Gessner, 1995). Anchorage independence was measured by soft agar assay (Hahn et al., 1999). Compounds were added to both agar layers. Colonies were scored after 3 weeks.
(§3) We also addressed whether celastrol and gedunin activity results in decreased cell growth consistent with inhibition of AR and other HSP90 clients. […] Below this concentration, an intermediate viability inhibition is seen.

LNCaP cells [2] = assay: Soft agar assay of anchorage-independent growth; type: cell-based; details: for colony size in soft agar: LNCaP; for anchorage-independent growth of LNCaP cells (colony number): soft agar, celastrol 0.625 μM, compared with bicalutamide (casodex)
Procedure: as §1, §2

AR = assay: Western blot of AR protein level; type: cell-based; details: for concentration at and above which AR levels are decreased / concentration giving almost complete ablation of AR levels: LNCaP cells, 24 hr
Procedure: We first asked whether celastrol and gedunin decrease the levels of AR itself. […] Celastrol decreased AR levels in LNCaP cells at 0.5 μM and above, while gedunin decreases their levels at 10 μM and above. […] These concentration-dependent effects on AR are consistent with the observed inhibitory effects on AR-mediated signaling.

FLT3 = assay: Western blot of HSP90 client FLT3 level; type: cell-based, human; details: for protein level of FLT3: 24 hr, several cell lines, concentration-dependent
Procedure: To more broadly establish the effects of celastrol and gedunin on the HSP90 pathway, we tested whether these compounds decrease the protein levels of other HSP90 clients.
Celastrol (Calbiochem) and gedunin (Gaia Chemicals) were solubilized in DMSO. LNCaP.FGC cells (ATCC) were grown in RPMI 1640 (ATCC) with 10% FBS. Ba/F3 cells stably expressing human FLT3, EGFR, and BCR-ABL1 were grown in RPMI 1640, 10% FBS, and 2 ng/ml IL-3. SKBr3 cells were grown in a 1:1 DME:F12 plus 10% FBS.

LNCaP cells [3] = assay: Synergy with HSP90 inhibitors on cell growth by ATP level (isobologram); type: cell-based; details: 24 hr, low concentrations
Source text: If celastrol and gedunin act on HSP90 function via a distinct mechanism from HSP90 ATP-binding site inhibition (Bagatell et al., 2005), they might act synergistically with existing HSP90 inhibitors. We therefore tested the combinatorial effects of these compounds with HSP90 inhibitors on HSP90 client signaling and viability. […] Celastrol and gedunin therefore act synergistically with existing modes of HSP90 ATP-binding site inhibition to inhibit HSP90 client signaling and viability in a cellular context, consistent with their inhibition of HSP90 via a distinct mechanism.
as §2

[4] = system: LNCaP prostate cancer cell; assay: Apoptosis induction in LNCaP cells; type: cell-based; details: at higher concentrations
Source text: as §3

[5] = system: SKBR breast cancer cell line; assay: Apoptosis induction in SKBR cells; type: cell-based; details: to a greater extent than existing HSP90 ATP binding site inhibitors
HSP90α = HSP90α (Homo sapiens, UniProt P07900); assay: Geldanamycin competition assay (Cy3B-geldanamycin fluorescence polarization); type: binding; set-up: purchased Stressgen SPP776 / SPP-776; details: celastrol and gedunin at concentrations up to ~100 μM
Procedure: We first tested whether celastrol or gedunin could compete with Cy3B-geldanamycin for binding to the ATP-binding pocket of purified HSP90α by fluorescence polarization assay (Kim et al., 2004, Llauger-Bufi et al., 2003).
The geldanamycin competition assay was performed as described (He et al., 2006, Kim et al., 2004), except that Cy3B-geldanamycin rather than BODIPY-geldanamycin was used as described herein.
Measurements were taken in black 96-well microtiter plates (Coming #3650). The assay buffer (HFB) contained 20 mM HEPES (K) pH 7.3, 50 mM KCl, 5 mM MgCl2, 20 mM Na2MoO4, 0.01% NP40. Before each use, 0.1 mg/mL bovine gamma globulin (BGG) (Panvera Corporation, Madison, Wis.) and 2 mM DTT (Fisher Biotech, Fair Lawn, N.J.) were freshly added. GM-cy3B was synthesized as previously reported and was dissolved in DMSO to form 10 μM solutions. Cell lysates were prepared rupturing cellular membranes by freezing at −70° C. and dissolving the cellular extract in HFB with added protease and phosphotase inhibitors. Saturation curves were recorded in which GM-cy3B (3 nM) was treated with increasing amounts of cellular lysates.

[6] = system: androgen signaling signature in LNCaP cells; assay: GE-HTS androgen signaling signature assay / screen; details: LNCaP; for effect on the GE-HTS androgen signaling signature outside the screen: with and without 12 hours androgen pretreatment

SMILES	LNCaP cell viability at higher concentrations (LNCaP cells [1])	adherent growth of androgen-stimulated LNCaP cells (LNCaP cells [1])	colony size in soft agar (LNCaP cells [2])	anchorage-independent growth of LNCaP cells (colony number) (LNCaP cells [2])	concentration at and above which AR levels are decreased (AR)	concentration giving almost complete ablation of AR levels (AR)	protein level of FLT3 (FLT3)	combined effect with geldanamycin and 17-AAG on cell growth (ATP level) (LNCaP cells [3])	apoptosis in LNCaP cells [4]	apoptosis in SKBR breast cancer cell line [5]	competition with Cy3B-geldanamycin for binding to the ATP-binding pocket of HSP90α (HSP90α)	effect on the GE-HTS androgen signaling signature outside the screen [6]	inhibition of the androgen signaling signature in the GE-HTS screen (strong / weak) ([6]; ~20 μM, 24 hr)	AR protein by immunoblotting (AR; gedunin-treated LNCaP cells)	sensitivity of FLT3 internal tandem duplication (ITD) mutant to inhibition (FLT3; Ba/F3 cells, relative to non-mutant)
CC1=C(O)C(=O)C=C2C1=CC=C1[C@@]2(C)CC[C@@]2(C)[C@@H]3C[C@](C)(C(=O)O)CC[C@]3(C)CC[C@]12C [celastrol]	markedly decrease LNCaP prostate cancer cell viability	inhibit adherent and anchorage-independent growth	inhibited colony size	inhibited anchorage-independent growth to a similar degree as the AR competitive antagonist bicalutamide (casodex)	≥ 0.5 µM	1 µM	lowered the protein levels	synergistically inhibit cell growth	induce apoptosis	induct apoptosis	Neither celastrol nor gedunin significantly competed	inhibit the GE-HTS androgen signaling signature in a concentration-dependent manner	strong inhibition	–	–
CC(=O)O[C@@H]1C[C@H]2C(C)(C)C(=O)C=C[C@]2(C)[C@H]2CC[C@@]3(C)[C@H](c4ccoc4)OC(=O)[C@H]4O[C@]43[C@@]21C [gedunin]	markedly decrease LNCaP prostate cancer cell viability	inhibit adherent and anchorage-independent growth	inhibited colony size	inhibited anchorage-independent growth to a similar degree as the AR competitive antagonist bicalutamide (casodex)	≥ 10 µM	20 µM	lowered the protein levels	synergistically inhibit cell growth	induce apoptosis	induct apoptosis	Neither celastrol nor gedunin significantly competed	inhibit the GE-HTS androgen signaling signature in a concentration-dependent manner	–	nearly entirely eliminated	increased sensitivity
